Laboratory results: patent US4761477A (priority 1984, dated 1988)
Where two headings read alike, the source gives them in different places.

Legend:
[1] = Stability: test compounds heated at 100° C. for 8 hours; assay type: physicochemical; conditions: for Percent remainder (%) / Changes in appearance: heated at 100° C. for 8 hours; for Percent remainder (%): 480 min; for stability (in words): compared with the conventionally-known halides
Experimental: Test compounds were heated at 100° C. for 8 hours. Changes in their appearance and their percent remainders were studied.

cholera toxin = assay type: in vivo, SPF male Wister rats; conditions: secreta measured after 5 hours, rats
Solubility in water = assay type: physicochemical
adenylate cyclase [2] = assay: Inhibition of adenylate cyclase activity of splenic lymphocytes; assay type: biochemical; conditions: 200 nM, mice
Experimental: (§1) At 200 nM concentration, 13-propylberberin bisulfate inhibits about 50% of adenylate cyclase activity of intestinal epithetial cells or splenic lymphocytes in mice.

adenylate cyclase [3] = assay: Inhibition of adenylate cyclase activity of intestinal epithetial cells; assay type: biochemical; conditions: 200 nM, mice
Experimental: as §1

Compound	Percent remainder (%) [1] [%]	Solubility (Solubility in water)	stability (in words) [1]	Changes in appearance [1]	further results
CCCc1c2[n+](cc3c(OC)c(OC)ccc13)CCc1cc3c(cc1-2)OCO3 [13-Propylberberine bromide, 13-propylberberine bromide, reference compound]	57.0				
CCCc1c2[n+](cc3c(OC)c(OC)ccc13)CCc1cc3c(cc1-2)OCO3 [13-Propylberberine iodide, reference compound]	52.1				
CCCc1c2[n+](cc3c(OC)c(OC)ccc13)CCc1cc3c(cc1-2)OCO3 [13-Propylberberine chloride, reference compound]	48.7				
COc1ccc2cc3[n+](cc2c1OC)CCc1cc2c(cc1-3)OCO2 [Berberine chloride, reference compound]					Inhibition rate (%) (cholera toxin; 20 mg/kg injected into ligated tract with 20 μg cholera toxin): 8.0%
CCCc1c2[n+](cc3c(OC)c(OC)ccc13)CCc1cc3c(cc1-2)OCO3 [13-Propylberberine bisulfate, 13-propylberberine bisulfate]	100.0	soluble	extremely stable	no changes	Solubility (Solubility in water; listed as 13-propylberberine sulfate): readily soluble in water; inhibition of adenylate cyclase activity (adenylate cyclase [2]): about 50%; Inhibition rate (%) (cholera toxin; 0.5 mg/kg injected into ligated tract with 20 μg cholera toxin): 13.0%; Inhibition rate (%) (cholera toxin; 2 mg/kg injected into ligated tract with 20 μg cholera toxin): 40.0%; inhibition of adenylate cyclase activity (adenylate cyclase [3]): about 50%
CCCc1c2[n+](cc3c(OC)c(OC)ccc13)CCc1cc3c(cc1-2)OCO3 [13-Propylberberine primary phosphate, 13-propylberberine primary phosphate]	99.8	soluble	extremely stable	no changes	Solubility (Solubility in water; listed as 13-propylberberine phosphate): readily soluble in water
